Results on eight molecules are retold here after patent publication US8119159B2, “Solid oral dosage form containing an enhancer” (Merrion Research III Limited, priority 1999, dated 2012).

Data set [1] is described as follows: Closed loop rat model, intraduodenal TRH with enhancer, serum TRH. It is filed as in vivo. The settings on record: interduodenal bolus 500 or 1000 μg TRH with 35 mg enhancer. The method, then: Male Wistar rats (weight range 250 g-350 g) were anaesthetized with ketamine hydrochloride/acepromazine. […] All intraduodenal dose volumes (for samples and control) were 1 ml/kg. The proximal end of the segment was ligated and the loop was sprayed with isotonic saline (37° C.) to provide moisture and then replaced in the abdominal cavity avoiding distension. The incision was closed with surgical clips. A group of animals were administered TRH in PBS (100 μg in 0.2 ml) by subcutaneous injection as a reference.

In data set [2] the test system is Caco-2 monolayers. Put plainly: TEER of Caco-2 monolayers with MCFA sodium salts and 3H-TRH. It counts as cell-based. As to conditions: Caco-2 monolayers over 2 hours, sodium salts with 3H-TRH, concentrations of Table 1. The method, then:
(§1) Cell Culture: Caco-2 cells were cultured in Dulbecco's Modified Eagles Medium (DMEM) 4.5 g/L glucose supplemented with 1% (v/v) non-essential amino acids; 10% fetal calf serum and 1% penicillin/streptomycin. […] The cells were grown and expanded in standard tissue culture flasks and were passaged once they attained 100% confluence. The Caco-2 cells were then seeded on polycarbonate filter inserts (Costar; 12 mm diameter, 0.4 μm pore size) at a density of 5×10^5 cells/cm^2 and incubated in six well culture plates with a medium change every second day. Confluent monolayers between day 20 and day 30 seeding on filters and at passages 30-40 were used throughout these studies.
(§2) Transepithelial Transport Studies: The effects of sodium salts of various MCFAs on the transport of ^3H-TRH (apical to basolateral flux) was examined as follows: 15.0 μCi/ml (0.2 μM) ^3H-TRH was added apically at time zero for TRH flux experiments. The transport experiments were performed in Hank's Balanced Salt Solution (HBSS) containing 25 mM N-[2-hydroxyethyl]-piperazine-N′-[2-ethanesulfonic acid] (HEPES) buffer, pH 7.4 at 37° C. Due to variations in solubilities, various concentrations of the different MCFA sodium salts and various apical buffers were used as shown in Table 1. In all cases the basolateral chamber contained regular HBSS+HEPES.
(§3) After removing the cell culture medium, the monolayers were placed in wells containing prewarmed HBSS (37° C.); 1 ml apically and 2 ml basolaterally. Monolayers were incubated at 37° C. for 30 mins. Then at time zero, apical HBSS was replaced with the relevant apical test solution containing the radiolabelled compounds with and without the enhancer compound. […] The plates were placed on an orbital shaker in an incubator (37° C.). Transport across the monolayers was followed by basolateral sampling (1 ml) at 30 min. intervals up to 120 mins. At each 30 min. interval each insert was transferred to a new well containing 2 ml fresh prewarmed HBSS. Apical stock radioactivity was determined by taking 10 μl samples at t=0 and t=120 mins. […] Mean values for ^3H-TRH concentrations were calculated for the apical and basolateral solutions at each time point.

Data set [3] relates to Caco-2 monolayers. As to the kind of experiment: 3H-TRH apical to basolateral transport (Papp) across Caco-2 monolayers. It counts as in vitro ADME. The settings on record: sodium salts at the concentrations of Table 1. The method, then: as §1, §2
as §3, with “At each 30 min. interval each insert was transferred to a new well containing 2 ml fresh prewarmed HBSS.” left out

For data set [4], the system named is plasma anti-factor Xa activity. As to the kind of experiment: Closed-loop rat segment, intraileal USP heparin with enhancer, plasma anti-factor Xa. The settings on record: USP heparin 1000 iu. The method, then:
The procedure carried out in Example 1 (a) above was repeated using USP heparin in place of TRH and dosing intraileally rather than intraduodenally. A mid-line incision was made in the abdomen and the distal end of the ileum located (about 10 cm proximal to the ileo-caecal junction). 7-9 cm of tissue was isolated and the distal end ligated, taking care to avoid damage to surrounding blood vessels. Heparin absorption as indicated by […] (APTT) response was measured by placing a drop of whole blood (freshly sampled from the tail artery) on the test cartridge of Biotrack 512 coagulation monitor. APTT measurements were taken at various time points.
Citrated blood samples were centrifuged at 3000 rpm for 15 mins. to obtain plasma for anti-factor Xa analysis. […] The control in each case is a solution of the same heparin concentration containing no enhancer.

The nature of data set [5]: Closed-loop rat segment, intraileal USP heparin with enhancer, APTT response. It counts as in vivo. The settings on record: USP heparin 1000 iu, sodium caprate 10 and 35 mg. An excerpt: APTT measurements were taken at various time points.
The test system of data set [6] is plasma anti-factor Xa activity. As to the kind of experiment: Dog study of oral heparin/enhancer tablets, anti-factor Xa and clinical assessment. It is filed as in vivo. As to conditions: dogs, IR formulations, equivalent dose of heparin. The method, then:
Tablets from batches 3, 7 and 15 in Tables 5 and 6 above were dosed orally to groups of five dogs in a single dose crossover study. […] Blood samples for anti-factor Xa analysis were collected from the jugular vein at various time points.

For data set [7] the following is noted: oral conventional forms, cited from earlier work.
Data set [8] is described as follows: in vivo. The method, then:
Beagle dogs (10-15 Kg) were sedated with medetomidine (80 μg/kg) and an endoscope was inserted via the mouth, esophagus and stomach into the duodenum. The test solutions (10 ml), comprising leuprolide acetate (Mallinckrodt Inc, St. Louis, Mo.) with or without enhancer reconstituted in deionized water were administered intraduodenally via the endoscope. Following removal of the endoscope, sedation was reversed using atipamezole (400 μg/kg). The parenteral reference solutions comprising 1 mg Leuprolide reconstituted in 0.5 ml sterile water were administered intravenously and subcutaneously respectively.

The test system of data set [9] is plasma anti-factor Xa activity. Put plainly: Intraduodenal LMWH with enhancers in rats (open loop), plasma anti-factor Xa. It counts as in vivo, rat. The settings on record: intraduodenal 1000 IU, absence of enhancer.

On to `CCCCCCCC(=O)[O-].[Na+]` [Batch C8, sodium caprylate], for which, in data set [1], the “serum levels of TRH over the control TRH solution” value was “significantly increases”.

With `CCCCCCCCCC(=O)[O-].[Na+]` [Batch C10, sodium caprate], the “effect on TEER compared to the control” value in [2] was “minimal reduction in TEER”. Further, in data set [3], the “effect on permeability constant Papp for 3H-TRH compared to the control” value (“effect … for 3H-TRH compared to the control” for short) is “considerable increases”. In addition, the “anti-factor Xa activity relative to control heparin solution” value in data set [4] (enhancer 10 mg dose) and in data set [4] (enhancer 35 mg dose) was “significant increase” in each case. In [1], the “serum levels of TRH over the control TRH solution” value was “significantly increases”. Further, the “heparin absorption by APTT response vs control heparin solution” value in [5] was “significant increase in absorption”. In addition, the “anti-factor Xa response, NaC10 relative to NaC8 enhancer” value in data set [6] is “larger anti-factor Xa response”.

On to `CCCCCCCCCCCC(=O)[O-].[Na+]` [Batch C12, sodium laurate], for which, in data set [2], the “effect on TEER compared to the control” value is given as “some cell damage (reduction in TEER)”. In addition, in data set [3], the “effect … for 3H-TRH compared to the control” value is given as “considerable increases”.

Regarding `CCCCCCCCCCCCCC(=O)[O-].[Na+]` [Batch C14], in [2], the “effect on TEER compared to the control” value was “minimal reduction in TEER”. Further, the “effect … for 3H-TRH compared to the control” value in [3] is recorded as “considerable increases”.

Regarding `CCCCCCCCCCCCCCCCCC(=O)[O-].[Na+]` [Batch C18], the “effect on TEER compared to the control” value in data set [2] is recorded as “minimal reduction in TEER”.

For `NCCCC(O)(P(=O)(O)O)P(=O)(O)O` [alendronate], the “further share of the dose absorbed excreted in the urine” value in data set [7] (over the next 64 hours) is given as 5%. Moreover, the “share of the dose absorbed excreted in the urine” value in data set [7] (within 8 hours) is recorded as 40%.

`CCNC(=O)[C@@H]1CCCN1C(=O)[C@H](CCCNC(=N)N)NC(=O)[C@H](CC(C)C)NC(=O)[C@@H](CC(C)C)NC(=O)[C@H](Cc1ccc(O)cc1)NC(=O)[C@H](CO)NC(=O)[C@H](Cc1c[nH]c2ccccc12)NC(=O)[C@H](Cc1c[nH]cn1)NC(=O)[C@@H]1CCC(=O)N1` [leuprolide, leuprolide acetate] returned a bioavailability in [8] of 8%. In addition, the “systemic delivery of leuprolide” value in data set [8] (dog, in vivo) is “negligible”.

Take parnaparin sodium [LMWH]: the “systemic delivery of LMWH” value in data set [9] was “relatively poor”.
